Experimental data: patent publication US20100227859A1, “TRICYCLIC COMPOUNDS AS MATRIX METALLOPROTEINASE INHIBITORS” (priority 2007, published 2010)

These molecules were tested against purified human MMP-12 enzyme (Homo sapiens, UniProt P39900) (assay: MMP-12 FRET assay). Conditions: substrate 20 μM, room temperature.
Assay type: biochemical
Outline: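 Enzyme pre-incubated 30 min at room temperature with compound in 50 mM HEPES pH 7.4, 100 mM NaCl, 5 mM CaCl2, 0.005% Brij-35, 10% DMSO final. Reaction started with 20 μM MCA-Pro-Leu-Gly-Leu-Dpa(DNP)-Ala-Arg, and initial cleavage rate read over 30 min (λex 325, λem 395 nm). IC50 from slope-factor inhibition fit.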

Chain of purified human MMP-12 enzyme (P39900 106-470): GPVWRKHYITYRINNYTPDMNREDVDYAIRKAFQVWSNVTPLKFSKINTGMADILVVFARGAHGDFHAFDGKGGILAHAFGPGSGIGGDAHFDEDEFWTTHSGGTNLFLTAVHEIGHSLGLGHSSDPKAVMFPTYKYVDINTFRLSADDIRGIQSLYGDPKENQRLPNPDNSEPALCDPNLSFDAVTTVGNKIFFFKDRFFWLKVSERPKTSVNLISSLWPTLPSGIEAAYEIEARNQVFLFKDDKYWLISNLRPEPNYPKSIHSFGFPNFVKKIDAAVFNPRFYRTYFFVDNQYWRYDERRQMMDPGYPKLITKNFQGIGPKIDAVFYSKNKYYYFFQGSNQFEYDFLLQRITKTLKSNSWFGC

| Molecule | IC50 |
| --- | --- |
| CC(C)[C@@H](NS(=O)(=O)c1ccc2sc3cc(-c4ccc(Cl)o4)ccc3c2c1)C(=O)O [Compound 288, (R)-2-(7-(5-chlorofuran-2-yl)dibenzo[b,d]thiophene-2-sulfonamido)-3-methylbutanoic acid] | 110 nM |
| CC(C)[C@@H](NS(=O)(=O)c1ccc2oc3cc(-c4ccc(-c5ccccc5)s4)ccc3c2c1)C(=O)O [Compound 289, (R)-3-methyl-2-(7-(5-phenylthiophen-2-yl)dibenzo[b,d]furan-2-sulfonamido)butanoic acid] | 9.1 nM |
| CC(C)[C@@H](NS(=O)(=O)c1ccc2oc3cc(-c4ccc(Cl)o4)ccc3c2c1)C(=O)O [Compound 290, (R)-2-(7-(5-chlorofuran-2-yl)dibenzo[b,d]furan-2-sulfonamido)-3-methylbutanoic acid] | 4.4 nM |
| CC(C)[C@@H](NS(=O)(=O)c1ccc2oc3cc(-c4nccs4)ccc3c2c1)C(=O)O [Compound 291, (R)-3-methyl-2-(7-(thiazol-2-yl)dibenzo[b,d]furan-2-sulfonamido)butanoic acid] | 5.2 nM |
| Cc1nnc(-c2ccc3c(c2)oc2ccc(S(=O)(=O)N[C@@H](C(=O)O)C(C)C)cc23)s1 [Compound 292, (R)-3-methyl-2-(7-(5-methyl-1,3,4-thiadiazol-2-yl)dibenzo[b,d]furan-2-sulfonamido)butanoic acid] | 43 nM |
| CC(C)[C@@H](NS(=O)(=O)c1ccc2oc3cc(-c4nc5ccccc5s4)ccc3c2c1)C(=O)O [Compound 293, (R)-2-(7-(benzo[d]thiazol-2-yl)dibenzo[b,d]furan-2-sulfonamido)-3-methylbutanoic acid] | 21 nM |
| CC(C)[C@@H](NS(=O)(=O)c1ccc2oc3cc(-c4nc5ccccc5o4)ccc3c2c1)C(=O)O [Compound 294, (R)-2-(7-(benzo[d]oxazol-2-yl)dibenzo[b,d]furan-2-sulfonamido)-3-methylbutanoic acid] | 9.5 nM |
| CC(C)[C@@H](NS(=O)(=O)c1ccc2oc3cc(-c4nc(C(F)(F)F)c(Cl)s4)ccc3c2c1)C(=O)O [Compound 295, (R)-2-(7-(5-chloro-4-(trifluoromethyl)thiazol-2-yl)dibenzo[b,d]furan-2-sulfonamido)-3-methylbutanoic acid] | 15 nM |
| COc1ccc2nc(-c3ccc4c(c3)oc3ccc(S(=O)(=O)N[C@@H](C(=O)O)C(C)C)cc34)sc2c1 [Compound 296, (R)-2-(7-(6-methoxybenzo[d]thiazol-2-yl)dibenzo[b,d]furan-2-sulfonamido)-3-methylbutanoic acid] | 3.1 nM |
| CC(C)[C@@H](NS(=O)(=O)c1ccc2oc3cc(-c4nc5ccc(F)cc5s4)ccc3c2c1)C(=O)O [Compound 297, (R)-2-(7-(6-fluorobenzo[d]thiazol-2-yl)dibenzo[b,d]furan-2-sulfonamido)-3-methylbutanoic acid] | 2.2 nM |
| Cc1ccc2nc(-c3ccc4c(c3)oc3ccc(S(=O)(=O)N[C@@H](C(=O)O)C(C)C)cc34)sc2c1 [Compound 298, (R)-3-methyl-2-(7-(6-methylbenzo[d]thiazol-2-yl)dibenzo[b,d]furan-2-sulfonamido)butanoic acid] | 7.4 nM |
| CC(C)[C@@H](NS(=O)(=O)c1ccc2oc3cc(-c4nc5c(F)cccc5s4)ccc3c2c1)C(=O)O [Compound 299, (R)-2-(7-(4-fluorobenzo[d]thiazol-2-yl)dibenzo[b,d]furan-2-sulfonamido)-3-methylbutanoic acid] | 15 nM |
| CC(C)[C@@H](NS(=O)(=O)c1ccc2oc3cc(-c4nc5c(F)c(F)c(F)cc5s4)ccc3c2c1)C(=O)O [Compound 300, (R)-3-methyl-2-(7-(4,5,6-trifluorobenzo[d]thiazol-2-yl)dibenzo[b,d]furan-2-sulfonamido)butanoic acid] | 51 nM |
| CC(C)[C@@H](NS(=O)(=O)c1ccc2oc3cc(-c4nc5ccc(OC(F)(F)F)cc5s4)ccc3c2c1)C(=O)O [Compound 301, (R)-3-methyl-2-(7-(6-(trifluoromethoxy)benzo[d]thiazol-2-yl)dibenzo[b,d]furan-2-sulfonamido)butanoic acid] | 78 nM |
| CC(C)[C@@H](NS(=O)(=O)c1ccc2oc3cc(-c4nc5ccc(C(F)(F)F)cc5s4)ccc3c2c1)C(=O)O [Compound 302, (R)-3-methyl-2-(7-(6-(trifluoromethyl)benzo[d]thiazol-2-yl)dibenzo[b,d]furan-2-sulfonamido)butanoic acid] | 28 nM |
| C#Cc1ccc2oc3cc(S(=O)(=O)N[C@H](C(=O)O)C(C)C)ccc3c2c1 [Compound 303, (S)-2-(8-ethynyldibenzo[b,d]furan-3-sulfonamido)-3-methylbutanoic acid] | < 1.5 nM |
| CC(C)[C@H](NS(=O)(=O)c1ccc2c(c1)sc1cc(-c3ccc(Cl)s3)ccc12)C(=O)O [Compound 304, (S)-2-(7-(5-chlorothiophen-2-yl)dibenzo[b,d]thiophene-3-sulfonamido)-3-methylbutanoic acid] | 1.5 nM |
| Cc1nc(-c2ccc3oc4cc(S(=O)(=O)N[C@H](C(=O)O)C(C)C)ccc4c3c2)sc1C [Compound 305, (S)-2-(8-(4,5-dimethylthiazol-2-yl)dibenzo[b,d]furan-3-sulfonamido)-3-methylbutanoic acid] | 1.6 nM |
| CC(C)[C@H](NS(=O)(=O)c1ccc2c(c1)oc1ccc(-c3nc4c(s3)CCCC4)cc12)C(=O)O [Compound 307, (S)-3-methyl-2-(8-(4,5,6,7-tetrahydrobenzo[d]thiazol-2-yl)dibenzo[b,d]furan-3-sulfonamido)butanoic acid] | < 1.5 nM |
| CC(C)[C@H](NS(=O)(=O)c1ccc2c(c1)oc1ccc(-c3ccc4c(c3)OCO4)cc12)C(=O)O [Compound 308, (S)-2-(8-(benzo[d][1,3]dioxol-5-yl)dibenzo[b,d]furan-3-sulfonamido)-3-methylbutanoic acid] | < 1.5 nM |
| CC(C)[C@H](NS(=O)(=O)c1ccc2c(c1)oc1ccc(-c3ccccc3)cc12)C(=O)O [Compound 309, (S)-3-methyl-2-(8-phenyldibenzo[b,d]furan-3-sulfonamido)butanoic acid] | < 1.5 nM |
| COc1ccc(-c2ccc3oc4cc(S(=O)(=O)N[C@H](C(=O)O)C(C)C)ccc4c3c2)cc1 [Compound 310, (S)-2-(8-(4-methoxyphenyl)dibenzo[b,d]furan-3-sulfonamido)-3-methylbutanoic acid] | < 1.5 nM |
| CC(C)[C@H](NS(=O)(=O)c1ccc2c(c1)oc1ccc(-c3ccc(C(F)(F)F)cc3)cc12)C(=O)O [Compound 311, (S)-3-methyl-2-(8-(4-(trifluoromethyl)phenyl)dibenzo[b,d]furan-3-sulfonamido)butanoic acid] | 2 nM |
| CC(C)[C@H](NS(=O)(=O)c1ccc2c(c1)sc1cc(-c3ccccc3)ccc12)C(=O)O [Compound 313, (S)-3-methyl-2-(7-phenyldibenzo[b,d]thiophene-3-sulfonamido)butanoic acid] | < 1.5 nM |
| CC(C)[C@@H](NS(=O)(=O)c1ccc2c(c1)sc1cc(-c3ccccc3)ccc12)C(=O)O [Compound 314, (R)-3-methyl-2-(7-phenyldibenzo[b,d]thiophene-3-sulfonamido)butanoic acid] | 2.6 nM |
| (R)-2-(7-(5-ethyl-1,2,4-oxadiazol-3-yl)dibenzo[b,d]furan-2-sulfonamido)-3-methylbutanoic acid [Compound 140] | 3.8 nM |
| (S)-3-methyl-2-(8-(5-((methylamino)methyl)furan-2-yl)dibenzo[b,d]furan-3-sulfonamido)butanoic acid [Compound 68] | 13 nM |
